# Data reported in patent US9113629B2, “4-amino-6-(4-substituted-phenyl)-picolinates and 6-amino-2-(4-substituted-phenyl)-pyrimidine-4-carboxylates and their use as herbicides” (DOW AGROSCIENCES LLC, priority 2013, dated 2015).
# Tested on: PHAMI: lesser canary grass (Phalaris minor)
# Assay: Post-emergent Test III, herbicidal activity in wheat and barley
# Format: in vivo
# Settings: Phalaris minor, post-emergence, 504 h; 35 g ai/ha; read-out: Visual Growth Reduction (%) 21 Days After Application PHAMI
# Summary of the method: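 Plants at the second to third true-leaf stage, grown in a greenhouse at about 18/17 °C with a 14 h photoperiod, were sprayed post-emergence at 187 L/ha with the high rate and ½× to 1/16× serial dilutions in an acetone/DMSO/crop-oil/surfactant carrier. Injury was rated visually at 21 d on a 0–100% scale, and GR20–GR90 were derived by probit analysis.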
row,Structure (SMILES),pest or weed control at 35 g/ha
1,Nc1cc(-c2ccc(Br)c(F)c2F)nc(C(=O)O)c1Cl [Compound 91],30 to 44%
2,Nc1c(F)c(-c2ccc(Cl)c(F)c2)nc(C(=O)O)c1Cl [Compound 217],85 to 94%

# Same assay, conditions: Phalaris minor, post-emergence, 504 h; 70 g ai/ha; read-out: Visual Growth Reduction (%) 21 Days After Application PHAMI
row,Structure (SMILES),pest or weed control at 70 g/ha
1,Nc1cc(-c2ccc(Br)c(F)c2F)nc(C(=O)O)c1Cl [Compound 91],30 to 44%
2,Nc1c(F)c(-c2ccc(Cl)c(F)c2)nc(C(=O)O)c1Cl [Compound 217],85 to 94%

# Same assay, conditions: Phalaris minor, post-emergence, 504 h; 140 g ai/ha; read-out: Visual Growth Reduction (%) 21 Days After Application PHAMI
row,Structure (SMILES),pest or weed control at 140 g/ha
1,Nc1cc(-c2ccc(Br)c(F)c2F)nc(C(=O)O)c1Cl [Compound 91],30 to 44%
2,Nc1c(F)c(-c2ccc(Cl)c(F)c2)nc(C(=O)O)c1Cl [Compound 217],85 to 94%

# Same assay, conditions: probit analysis, dose for growth reduction of 50 percent, 21 days after application
row,Structure (SMILES),GR50 PHAMI
1,Nc1cc(-c2ccc(Br)c(F)c2F)nc(C(=O)O)c1Cl [Compound 91],>140 g ai/ha
2,Nc1c(F)c(-c2ccc(Cl)c(F)c2)nc(C(=O)O)c1Cl [Compound 217],11 g ai/ha

# Same assay, conditions: probit analysis, dose for growth reduction of 80 percent, 21 days after application
row,Structure (SMILES),GR80 PHAMI
1,Nc1cc(-c2ccc(Br)c(F)c2F)nc(C(=O)O)c1Cl [Compound 91],>140 g ai/ha
2,Nc1c(F)c(-c2ccc(Cl)c(F)c2)nc(C(=O)O)c1Cl [Compound 217],30 g ai/ha

# Tested on: test plant species in Direct Seeded Rice
# Assay: Postemergence herbicidal activity in direct seeded rice (Table 13)
# Format: in vivo
# Settings: BRAPP: broadleaf signalgrass, Brachiaria platyphylla; probit analysis
# Summary of the method: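 Greenhouse-grown plants at the second or third true leaf stage were sprayed postemergence at 187 L/ha with compound in acetone/DMSO (final 16.2%/0.5%) plus aqueous Agri-dex crop oil concentrate; controls got solvent blank. Injury was rated visually 0–100% after 20-22 days, and GR20, GR50, GR80 and GR90 derived by probit analysis.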
Structure (SMILES),GR50 BRAPP,GR80 BRAPP
COc1c(N)nc(-c2ccc(Br)c(F)c2F)nc1C(=O)O [Compound 8],4 g ai/ha,9 g ai/ha
Nc1c(F)c(-c2ccc(Cl)c(F)c2)nc(C(=O)O)c1Cl [Compound 217],3 g ai/ha,5 g ai/ha

# Same assay, conditions: CYPSS: sedge (Cyperus difformis, esculentus, iria); probit analysis
Structure (SMILES),GR50 CYPSS,GR80 CYPSS
COc1c(N)nc(-c2ccc(Br)c(F)c2F)nc1C(=O)O [Compound 8],1 g ai/ha,1 g ai/ha
Nc1c(F)c(-c2ccc(Cl)c(F)c2)nc(C(=O)O)c1Cl [Compound 217],5 g ai/ha,11 g ai/ha

# Same assay, conditions: ECHSS: barnyardgrass (Echinochloa crus-galli), junglerice (Echinochloa colonum); probit analysis
Structure (SMILES),GR50 ECHSS,GR80 ECHSS
COc1c(N)nc(-c2ccc(Br)c(F)c2F)nc1C(=O)O [Compound 8],2 g ai/ha,6 g ai/ha
Nc1c(F)c(-c2ccc(Cl)c(F)c2)nc(C(=O)O)c1Cl [Compound 217],1 g ai/ha,1 g ai/ha

# Same assay, conditions: LEFSS: sprangletop (Leptochloa chinensis, Leptochloa dubia); probit analysis
Structure (SMILES),GR50 LEFSS,GR80 LEFSS
COc1c(N)nc(-c2ccc(Br)c(F)c2F)nc1C(=O)O [Compound 8],>70 g ai/ha,>70 g ai/ha
Nc1c(F)c(-c2ccc(Cl)c(F)c2)nc(C(=O)O)c1Cl [Compound 217],1 g ai/ha,3 g ai/ha

# Same assay, conditions: ORYSS: Oryza sativa (crop); probit analysis
row,Structure (SMILES),GR20 ORYSS
1,COc1c(N)nc(-c2ccc(Br)c(F)c2F)nc1C(=O)O [Compound 8],2 g ai/ha
2,Nc1c(F)c(-c2ccc(Cl)c(F)c2)nc(C(=O)O)c1Cl [Compound 217],10 g ai/ha

# Same assay, conditions: SCPJU: Japanese bulrush, Scirpus juncoides; probit analysis
Structure (SMILES),GR50 SCPJU,GR80 SCPJU
COc1c(N)nc(-c2ccc(Br)c(F)c2F)nc1C(=O)O [Compound 8],1 g ai/ha,1 g ai/ha
Nc1c(F)c(-c2ccc(Cl)c(F)c2)nc(C(=O)O)c1Cl [Compound 217],1 g ai/ha,1 g ai/ha

# Same assay, conditions: SEBEX: hemp sesbania, Sesbania exaltata; probit analysis
Structure (SMILES),GR50 SEBEX,GR80 SEBEX
COc1c(N)nc(-c2ccc(Br)c(F)c2F)nc1C(=O)O [Compound 8],3 g ai/ha,5 g ai/ha
Nc1c(F)c(-c2ccc(Cl)c(F)c2)nc(C(=O)O)c1Cl [Compound 217],1 g ai/ha,1 g ai/ha

# Same assay, conditions: post-emergence, 504 h; BRAPP: broadleaf signalgrass, Brachiaria platyphylla; 35 g ai/ha; read-out: Visual Growth Reduction (%) 21 Days After Application BRAPP
row,Structure (SMILES),pest or weed control at 35 g/ha
1,COc1c(N)nc(-c2ccc(Br)c(F)c2F)nc1C(=O)O [Compound 8],95 to 100%
2,Nc1c(F)c(-c2ccc(Cl)c(F)c2)nc(C(=O)O)c1Cl [Compound 217],95 to 100%

# Same assay, conditions: post-emergence, 504 h; BRAPP: broadleaf signalgrass, Brachiaria platyphylla; 70 g ai/ha; read-out: Visual Growth Reduction (%) 21 Days After Application BRAPP
row,Structure (SMILES),pest or weed control at 70 g/ha
1,COc1c(N)nc(-c2ccc(Br)c(F)c2F)nc1C(=O)O [Compound 8],95 to 100%
2,Nc1c(F)c(-c2ccc(Cl)c(F)c2)nc(C(=O)O)c1Cl [Compound 217],95 to 100%

# Same assay, conditions: post-emergence, 504 h; CYPSS: sedge (Cyperus difformis, esculentus, iria); 35 g ai/ha; read-out: Visual Growth Reduction (%) 21 Days After Application CYPSS
row,Structure (SMILES),pest or weed control at 35 g/ha
1,COc1c(N)nc(-c2ccc(Br)c(F)c2F)nc1C(=O)O [Compound 8],95 to 100%
2,Nc1c(F)c(-c2ccc(Cl)c(F)c2)nc(C(=O)O)c1Cl [Compound 217],95 to 100%

# Same assay, conditions: post-emergence, 504 h; CYPSS: sedge (Cyperus difformis, esculentus, iria); 70 g ai/ha; read-out: Visual Growth Reduction (%) 21 Days After Application CYPSS
row,Structure (SMILES),pest or weed control at 70 g/ha
1,COc1c(N)nc(-c2ccc(Br)c(F)c2F)nc1C(=O)O [Compound 8],95 to 100%
2,Nc1c(F)c(-c2ccc(Cl)c(F)c2)nc(C(=O)O)c1Cl [Compound 217],95 to 100%

# Same assay, conditions: post-emergence, 504 h; ECHSS: barnyardgrass (Echinochloa crus-galli), junglerice (Echinochloa colonum); 35 g ai/ha; read-out: Visual Growth Reduction (%) 21 Days After Application ECHSS
row,Structure (SMILES),pest or weed control at 35 g/ha
1,COc1c(N)nc(-c2ccc(Br)c(F)c2F)nc1C(=O)O [Compound 8],95 to 100%
2,Nc1c(F)c(-c2ccc(Cl)c(F)c2)nc(C(=O)O)c1Cl [Compound 217],95 to 100%

# Same assay, conditions: post-emergence, 504 h; ECHSS: barnyardgrass (Echinochloa crus-galli), junglerice (Echinochloa colonum); 70 g ai/ha; read-out: Visual Growth Reduction (%) 21 Days After Application ECHSS
row,Structure (SMILES),pest or weed control at 70 g/ha
1,COc1c(N)nc(-c2ccc(Br)c(F)c2F)nc1C(=O)O [Compound 8],95 to 100%
2,Nc1c(F)c(-c2ccc(Cl)c(F)c2)nc(C(=O)O)c1Cl [Compound 217],95 to 100%

# Same assay, conditions: post-emergence, 504 h; LEFSS: sprangletop (Leptochloa chinensis, Leptochloa dubia); 35 g ai/ha; read-out: Visual Growth Reduction (%) 21 Days After Application LEFSS
row,Structure (SMILES),pest or weed control at 35 g/ha
1,COc1c(N)nc(-c2ccc(Br)c(F)c2F)nc1C(=O)O [Compound 8],0 to 29%
2,Nc1c(F)c(-c2ccc(Cl)c(F)c2)nc(C(=O)O)c1Cl [Compound 217],95 to 100%

# Same assay, conditions: post-emergence, 504 h; LEFSS: sprangletop (Leptochloa chinensis, Leptochloa dubia); 70 g ai/ha; read-out: Visual Growth Reduction (%) 21 Days After Application LEFSS
row,Structure (SMILES),pest or weed control at 70 g/ha
1,COc1c(N)nc(-c2ccc(Br)c(F)c2F)nc1C(=O)O [Compound 8],30 to 44%
2,Nc1c(F)c(-c2ccc(Cl)c(F)c2)nc(C(=O)O)c1Cl [Compound 217],95 to 100%

# Same assay, conditions: post-emergence, 504 h; ORYSS: Oryza sativa; 35 g ai/ha; read-out: Visual Growth Reduction (%) 21 Days After Application ORYSS
row,Structure (SMILES),pest or weed control at 35 g/ha
1,COc1c(N)nc(-c2ccc(Br)c(F)c2F)nc1C(=O)O [Compound 8],75 to 84%
2,Nc1c(F)c(-c2ccc(Cl)c(F)c2)nc(C(=O)O)c1Cl [Compound 217],45 to 59%

# Same assay, conditions: post-emergence, 504 h; ORYSS: Oryza sativa; 70 g ai/ha; read-out: Visual Growth Reduction (%) 21 Days After Application ORYSS
row,Structure (SMILES),pest or weed control at 70 g/ha
1,COc1c(N)nc(-c2ccc(Br)c(F)c2F)nc1C(=O)O [Compound 8],85 to 94%
2,Nc1c(F)c(-c2ccc(Cl)c(F)c2)nc(C(=O)O)c1Cl [Compound 217],75 to 84%

# Same assay, conditions: post-emergence, 504 h; SCPJU: Japanese bulrush, Scirpus juncoides; 35 g ai/ha; read-out: Visual Growth Reduction (%) 21 Days After Application SCPJU
row,Structure (SMILES),pest or weed control at 35 g/ha
1,COc1c(N)nc(-c2ccc(Br)c(F)c2F)nc1C(=O)O [Compound 8],95 to 100%
2,Nc1c(F)c(-c2ccc(Cl)c(F)c2)nc(C(=O)O)c1Cl [Compound 217],95 to 100%

# Same assay, conditions: post-emergence, 504 h; SCPJU: Japanese bulrush, Scirpus juncoides; 70 g ai/ha; read-out: Visual Growth Reduction (%) 21 Days After Application SCPJU
row,Structure (SMILES),pest or weed control at 70 g/ha
1,COc1c(N)nc(-c2ccc(Br)c(F)c2F)nc1C(=O)O [Compound 8],95 to 100%
2,Nc1c(F)c(-c2ccc(Cl)c(F)c2)nc(C(=O)O)c1Cl [Compound 217],95 to 100%

# Same assay, conditions: post-emergence, 504 h; SEBEX: hemp sesbania, Sesbania exaltata; 35 g ai/ha; read-out: Visual Growth Reduction (%) 21 Days After Application SEBEX
row,Structure (SMILES),pest or weed control at 35 g/ha
1,COc1c(N)nc(-c2ccc(Br)c(F)c2F)nc1C(=O)O [Compound 8],95 to 100%
2,Nc1c(F)c(-c2ccc(Cl)c(F)c2)nc(C(=O)O)c1Cl [Compound 217],95 to 100%

# Same assay, conditions: post-emergence, 504 h; SEBEX: hemp sesbania, Sesbania exaltata; 70 g ai/ha; read-out: Visual Growth Reduction (%) 21 Days After Application SEBEX
row,Structure (SMILES),pest or weed control at 70 g/ha
1,COc1c(N)nc(-c2ccc(Br)c(F)c2F)nc1C(=O)O [Compound 8],95 to 100%
2,Nc1c(F)c(-c2ccc(Cl)c(F)c2)nc(C(=O)O)c1Cl [Compound 217],95 to 100%
